Measured values published in US8288423B2, “FXa inhibitors with cyclic amidines as P4 subunit, processes for their preparations, and pharmaceutical compositions and derivatives thereof” (Legochem Bioscience Ltd., priority 2007, dated 2012).
Values after ≈ are worked out from the molar mass of the structure shown. Like-named read-outs stand apart in the source and are kept apart here.

B1: antistasin (protein, UniProt P15358 18-136, looked up)
Antistasin: QGPFGPGCEEAGCPEGSACNIITDRCTCSGVRCRMHCPHGFQRSRYGCEFCKCRLEPMKATCDISECPEGMMCSRLTNKCDCKIDINCRKTCPNGLKRDKLGCEYCECRPKRKLIPRLS

Legend:
[1] = molecular target: T1, factor Xa (Homo sapiens, UniProt P00742); experiment: Inhibiting activity of factor Xa inhibitor (chromogenic substrate S-2765); assay type: biochemical; conditions: calculated from IC50 by Equation 1, Km 125 μM; S-2765 substrate, pH 7.8, 37° C.; read-out: Ki (nM), factor Xa inhibition constant
T1 construct: purchased Enzyme Research Laboratories
Method: Relative rate of hydrolysis (as compared to control group without inhibition) was plotted versus logarithm of the concentration of the oxazolidinone derivative with a cyclic amidine represented by Chemical Formula (1) according to the invention, to obtain the concentration of the inhibitor for 50% decrease in the rate of hydrolysis of the substrate.
The inhibition constant can be obtained by spectrophotometry whereby the color development is determined as a function of time, after being reacted with a specific substrate which develops color upon hydrolysis caused by action of factor Xa.
For the inhibitor solution, the inhibitor compound according to the present invention was diluted with dimethylsulfoxide (DMSO) in 10 mM, and then further diluted with third-distilled water (finally 10% DMSO solution), and the solution (10 μL) was added to each well. […] The substrate solution (20 μL) thus prepared was added to each well.
Kinetic analysis of the reaction was performed by a kinetic plate reader (Molecular Devices, Spectramax 190) at 37° C. for 20 minutes.
Relative rate of hydrolysis (compared to control group without inhibition) versus logarithm of the oxazolidinone derivative with a cyclic amidine group (Chemical Formula I) was plotted to obtain the concentration of the inhibitor to decrease the rate of hydrolysis of the substrate by 50%. GraFit (version 5.0.12) program for statistical process purchased from Erithacus Software was employed.
When inhibition constant Ki is calculated, it can be calculated according to Equation (1).

[2] = tested on: plasma protein; experiment: Determination of plasma protein binding (ultrafiltration, LC-MS/MS); assay type: in vitro ADME; conditions: citrated plasma, 37° C., 60 minutes, Ultracel-10 filter
Method: Citrated plasma was purchased from Daejeon-Chungnam Blood Institute (located at Daejeon, Korea). A compound solution (500 μM in DMSO) (10 μL), according to the invention Was added to the plasma (1 mL), and the reaction was carried out at 37° C. and 120 rpm for 60 minutes. To three wells of Ultracel-10 filter plate (Millipore), the reaction solution was transferred (300 μL each). Then, the plasma solution (70 μL) was taken, and the total concentration of the compound was quantified by means of LC-MS/MS (API3000, ABI). After centrifuging the Ultracel-10 filter plate at 37° C. and 2000×g for 45 minutes, the filtrate was taken to determine the concentration of the compound which was not bound to the plasma protein. Percentage of plasma protein binding was obtained via Equation (2): % Protein binding=(1−concentration of compound in filtrate/concentration of compound in entire solution)×100% Free=100−% Protein binding [Equation 2]

[3] = tested on: thrombus formation; experiment: % inhibition against thrombus formation, arteriovenous shunt model in white rats; assay type: in vivo, white rats (male Sprague Dawley); design: concentration or dose not given beside the values; conditions: orally administered 1 hour before opening of the shunt; 15 minutes circulation; versus control group
Method: 3) Determination of % Inhibition Against Thrombus Formation by Means of Arteriovenous Shunt Model ([…]) in White Rats Antithrombotic effect of the compounds according to the present invention was evaluated by using arteriovenous shunt model in white rats. The animals used were male Sprague Dawleys with the body weight of 200-250 g. For one day before the experiment, the animals were fasted. Five to six animals were used for each test group. The compound of Example was orally administered 1 hour before opening of the shunt. The rats were anesthetized by abdominal administration of Rompun (Bay HealthCare) and Chloral hydrate or urethane in an amount of 12 and 50 mg per kg of the body weight. Into the left carotid artery and right jugular vein of the white rat, a polyethylene(PE)-60 tubing filled with physiological saline was inserted and secured. Both ends of individual PE tubing were connected to a silicone tubing having a length of 5 cm in which a cotton thread have been incorporated diagonally, and the shunt was open to provide circulation for 15 minutes. The shunt was then compressed by using jaws, and the cotton thread was carefully removed and the thrombus generated was weighed. The % inhibition of thrombus formation was calculated by using the weight of thrombus obtained from white rats of the control group to which a solution of oral administration was administered.

[4] = tested on: plasma; experiment: Measurement of aPTT (activated partial thromboplastin time) in plasma; assay type: biochemical; design: unit not given here; conditions: STA-PTT, CaCl2, 37° C., unit not given
Method: The effect of oxazolidinone derivatives with cyclic amidines represented by Chemical Formula (1) according to the invention on blood coagulation was compared by measuring PT (prothrombin time) and aPTT (activated Partial Thromboplastin Time). The procedure of measurement is described below. A solution (5 μL) of the oxazolidinone derivative with cyclic amidine group represented by Chemical Formula (1) according to the invention (in a various concentration gradient, 5% DMSO solution) was added to the plasma ([…]), and the reaction was carried out at 37° C. for 2 minutes. STA-PTT (Diagnostica Stago) (50 μL) was then added thereto. After the reaction at 37° C. for additional 5 minutes, 25 mM CaCl2 (50 μL) was added thereto, and the duration for plasma coagulation was measured. The duration for plasma coagulation was determined as the point when the absorbance at 340 nm reaches 0.1.

[5] = Determination of aqueous solubility; assay type: physicochemical; conditions: aqueous with cosolvent or surfactant or cyclodextrin, kinetic from dmso stock; 100 mM potassium phosphate buffer pH 7.4, 5% DMSO, final concentration 500 μM, ambient temperature 90 minutes
Method: The plate was agitated at ambient temperature for 90 minutes with a rate of 225 rpm. After agitation, the content of the plate was filtered with application of pressure. The filtrate (160 μL) was individually transferred to a uv-96 well plate (Costar), and mixed with 40 μL of acetonitrile, and then agitated at ambient temperature for 10 minutes with a rate of 225 rpm. By means of a plate reader (Molecular Devices, Spectramax 190), absorbances at the wavelengths of 280, 300, 320, 340, 360 and 800 nm were measured. As a reference solution, employed was 100 mM potassium phosphate buffer (pH 7.4) containing 20% acetonitrile added by 10 mM DMSO solution (8 μL).

[6] = tested on: Citrated plasma; experiment: Measurement of PT (prothrombin time) in citrated plasma; assay type: biochemical; conditions: STA-Neoplastine, 37° C., unit not given (2×PT value)
Method: The effect of oxazolidinone derivatives with cyclic amidines represented by Chemical Formula (1) according to the invention on blood coagulation was compared by measuring PT (prothrombin time) and aPTT (activated Partial Thromboplastin Time). The procedure of measurement is described below. Citrated plasma was purchased from Daejeon-Chungnam Blood Institute (located at Daejeon, Korea). A compound solution (5 μL) according to the invention (in a various concentration gradient, 5% DMSO solution) was added to the plasma ([…]), and the reaction was carried out at 37° C. for 5 minutes. STA-Neoplastine (Diagnostica Stago) (100 μL) was then added thereto, and the duration for plasma coagulation was measured. The duration for plasma coagulation is determined as the point when the absorbance at 340 nm reaches 0.1.

[7] = background art; cited from earlier work
[8] = molecular target: T1, factor Xa; conditions: background art; cited from earlier work

T1 sequence (P00742 235-488 limits assumed): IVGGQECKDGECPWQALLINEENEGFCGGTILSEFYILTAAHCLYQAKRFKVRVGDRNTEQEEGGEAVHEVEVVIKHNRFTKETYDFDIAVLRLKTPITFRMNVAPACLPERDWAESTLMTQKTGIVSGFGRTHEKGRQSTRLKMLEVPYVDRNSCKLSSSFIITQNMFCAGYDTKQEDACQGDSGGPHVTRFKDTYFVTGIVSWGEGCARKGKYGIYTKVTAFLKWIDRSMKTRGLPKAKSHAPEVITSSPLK
T1 sequence (P00742 41-179 partner limits assumed): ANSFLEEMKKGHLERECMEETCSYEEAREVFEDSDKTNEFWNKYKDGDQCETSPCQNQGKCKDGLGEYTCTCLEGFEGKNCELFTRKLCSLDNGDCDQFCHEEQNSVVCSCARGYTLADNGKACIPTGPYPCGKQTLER

Row | Molecule | Ki [1] [nM] | Plasma protein binding (% Free) [2] [% Free] | % Inhibition (of thrombus formation) [3] [%] | APTT [4] | solubility at 90 min [5] [µM] | PT [6] | solubility [7] | Ki [8] [nM]
1 | CN1CCCN=C1c1ccc(N2C[C@H](CNC(=O)c3ccc(Cl)s3)OC2=O)cc1 [Compound 107, 5-chlorothiophene-2-carboxylic acid {(S)-3-[4-(1-methyl-1,4,5,6-tetrahydropyrimidine-2-yl)-phenyl]-2-oxo-oxazolidin-5-ylmethyl}-amide] | 5.7 | 31 | 50 | 0.28 | 411 (≈ 178 µg/mL) | 0.09 |  | 
2 | O=C(NC[C@H]1CN(c2ccc(N3CCN=C3C3CC3)cc2)C(=O)O1)c1ccc(Cl)s1 [Compound 117] | 3.18 | 17 | 68 | 0.29 | 484 (≈ 215 µg/mL) | 0.04 |  | 
3 | O=C(NC[C@H]1CN(c2ccc(N3CCN=C3c3ccco3)cc2)C(=O)O1)c1ccc(Cl)s1 [Compound 123] | 0.39 | 3 | 71 | 0.26 | 474 (≈ 223 µg/mL) | 0.07 |  | 
4 | O=C(NC[C@H]1CN(c2ccc(N3CCOCC3=O)cc2)C(=O)O1)c1ccc(Cl)s1 [Rivaroxaban, reference compound] |  | 9 | 83 | 0.39 | 50 (≈ 21.8 µg/mL) | 0.09 | about 8 mg/L | 
5 | tick anticoagulant peptide (YNRLCIKPRDWIDECDSNEGGERAYFRNGKGGCDSFWICPEDHTGADYYSSYRDCFNACI; UniProt P17726 1-60, looked up) [TAP] |  |  |  |  |  |  |  | 0.5
6 | B1 |  |  |  |  |  |  |  | 0.05
